Results published in patent publication US9446061B2, “Composition containing antibiotics and lysophosphatidylcholine for boosting immunity or treatment of bacterial infections” (priority 2011, dated 2016).

Test system: CPA-CLP sepsis mouse model
Assay: Effects of LPC concentrations on mortalities/survivabilities in CPA-CLP sepsis mouse model (SEP008); s.c. 4 times 12-hr intervals from 6 hrs after CLP
Format: in vivo, ICR mice
Description: CPA is well known as an immunosuppressive agent. […] Then, the abdomen was closed following the general procedure.
Then, body weight and mortality changes were observed.
In the Sham and CLP control groups, 10 ml/kg of only 5% human serum albumin was subcutaneously dosed at the same intervals.

Substance: Lysophosphatidylcholine [LPC]
- minimal effective dose (CPA-CLP model): about 1 mg/kg
- optimal effective dose (CPA-CLP model): 10 mg/kg
- Mortalities (LPC 1 mpk, 1st CPA treat): 0/10
- survivabilities (LPC 1 mpk, 1st CPA treat): 100%
- Mortalities (LPC 1 mpk, 2nd CPA treat): 0/10
- survivabilities (LPC 1 mpk, 2nd CPA treat): 100%
- Mortalities (LPC 1 mpk, At CLP (day 0)): 0/10
- survivabilities (LPC 1 mpk, At CLP (day 0)): 100%
- Mortalities (LPC 1 mpk, Day 1): 4/10
- survivabilities (LPC 1 mpk, Day 1): 60%
- Mortalities (LPC 1 mpk, Day 2): 2/6
- survivabilities (LPC 1 mpk, Day 2): 40%
- Mortalities (LPC 1 mpk, Day 3): 2/4
- survivabilities (LPC 1 mpk, Day 3): 20%
- Mortalities (LPC 1 mpk, Day 4): 2/2
- survivabilities (LPC 1 mpk, Day 4): 0%
- Mortalities (LPC 1 mpk, Day 5): 0/0
- survivabilities (LPC 1 mpk, Day 5): 0%
- Mortalities (LPC 1 mpk, Day 6): 0/0
- survivabilities (LPC 1 mpk, Day 6): 0%
- Mortalities (LPC 1 mpk, Day 7): 0/0
- survivabilities (LPC 1 mpk, Day 7): 0%
- Mortalities (LPC 1 mpk, Total): 10/10
- survivabilities (LPC 1 mpk, Total): 0%
- Mortalities (LPC 2.5 mpk, 1st CPA treat): 0/10
- survivabilities (LPC 2.5 mpk, 1st CPA treat): 100%
- Mortalities (LPC 2.5 mpk, 2nd CPA treat): 0/10
- survivabilities (LPC 2.5 mpk, 2nd CPA treat): 100%
- Mortalities (LPC 2.5 mpk, At CLP (day 0)): 0/10
- survivabilities (LPC 2.5 mpk, At CLP (day 0)): 100%
- Mortalities (LPC 2.5 mpk, Day 1): 2/10
- survivabilities (LPC 2.5 mpk, Day 1): 80%
- Mortalities (LPC 2.5 mpk, Day 2): 2/8
- survivabilities (LPC 2.5 mpk, Day 2): 60%
- Mortalities (LPC 2.5 mpk, Day 3): 3/6
- survivabilities (LPC 2.5 mpk, Day 3): 30%
- Mortalities (LPC 2.5 mpk, Day 4): 2/3
- survivabilities (LPC 2.5 mpk, Day 4): 10%
- Mortalities (LPC 2.5 mpk, Day 5): 1/1
- survivabilities (LPC 2.5 mpk, Day 5): 0%
- Mortalities (LPC 2.5 mpk, Day 6): 0/0
- survivabilities (LPC 2.5 mpk, Day 6): 0%
- Mortalities (LPC 2.5 mpk, Day 7): 0/0
- survivabilities (LPC 2.5 mpk, Day 7): 0%
- Mortalities (LPC 2.5 mpk, Total): 10/10
- survivabilities (LPC 2.5 mpk, Total): 0%
- Mortalities (LPC 5 mpk, 1st CPA treat): 0/10
- survivabilities (LPC 5 mpk, 1st CPA treat): 100%
- Mortalities (LPC 5 mpk, 2nd CPA treat): 0/10
- survivabilities (LPC 5 mpk, 2nd CPA treat): 100%
- Mortalities (LPC 5 mpk, At CLP (day 0)): 0/10
- survivabilities (LPC 5 mpk, At CLP (day 0)): 100%
- Mortalities (LPC 5 mpk, Day 1): 4/10
- survivabilities (LPC 5 mpk, Day 1): 60%
- Mortalities (LPC 5 mpk, Day 2): 1/6
- survivabilities (LPC 5 mpk, Day 2): 50%
- Mortalities (LPC 5 mpk, Day 3): 1/5
- survivabilities (LPC 5 mpk, Day 3): 40%
- Mortalities (LPC 5 mpk, Day 4): 1/4
- survivabilities (LPC 5 mpk, Day 4): 30%
- Mortalities (LPC 5 mpk, Day 5): 0/3
- survivabilities (LPC 5 mpk, Day 5): 30%
- Mortalities (LPC 5 mpk, Day 6): 2/3
- survivabilities (LPC 5 mpk, Day 6): 10%
- Mortalities (LPC 5 mpk, Day 7): 1/1
- survivabilities (LPC 5 mpk, Day 7): 0%
- Mortalities (LPC 5 mpk, Total): 10/10
- survivabilities (LPC 5 mpk, Total): 0%
- Mortalities (LPC 10 mpk, 1st CPA treat): 0/10
- survivabilities (LPC 10 mpk, 1st CPA treat): 100%
- Mortalities (LPC 10 mpk, 2nd CPA treat): 0/10
- survivabilities (LPC 10 mpk, 2nd CPA treat): 100%
- Mortalities (LPC 10 mpk, At CLP (day 0)): 0/10
- survivabilities (LPC 10 mpk, At CLP (day 0)): 100%
- Mortalities (LPC 10 mpk, Day 1): 1/10
- survivabilities (LPC 10 mpk, Day 1): 90%
- Mortalities (LPC 10 mpk, Day 2): 2/9
- survivabilities (LPC 10 mpk, Day 2): 70%
- Mortalities (LPC 10 mpk, Day 3): 1/7
- survivabilities (LPC 10 mpk, Day 3): 60%
- Mortalities (LPC 10 mpk, Day 4): 1/6
- survivabilities (LPC 10 mpk, Day 4): 50%
- Mortalities (LPC 10 mpk, Day 5): 1/5
- survivabilities (LPC 10 mpk, Day 5): 40%
- Mortalities (LPC 10 mpk, Day 6): 2/4
- survivabilities (LPC 10 mpk, Day 6): 20%
- Mortalities (LPC 10 mpk, Day 7): 2/2
- survivabilities (LPC 10 mpk, Day 7): 0%
- Mortalities (LPC 10 mpk, Total): 10/10
- survivabilities (LPC 10 mpk, Total): 0%
- Mortalities (LPC 20 mpk, 1st CPA treat): 0/10
- survivabilities (LPC 20 mpk, 1st CPA treat): 100%
- Mortalities (LPC 20 mpk, 2nd CPA treat): 0/10
- survivabilities (LPC 20 mpk, 2nd CPA treat): 100%
- Mortalities (LPC 20 mpk, At CLP (day 0)): 0/10
- survivabilities (LPC 20 mpk, At CLP (day 0)): 100%
- Mortalities (LPC 20 mpk, Day 1): 1/10
- survivabilities (LPC 20 mpk, Day 1): 90%
- Mortalities (LPC 20 mpk, Day 2): 1/9
- survivabilities (LPC 20 mpk, Day 2): 80%
- Mortalities (LPC 20 mpk, Day 3): 2/8
- survivabilities (LPC 20 mpk, Day 3): 60%
- Mortalities (LPC 20 mpk, Day 4): 2/6
- survivabilities (LPC 20 mpk, Day 4): 40%
- Mortalities (LPC 20 mpk, Day 5): 2/4
- survivabilities (LPC 20 mpk, Day 5): 20%
- Mortalities (LPC 20 mpk, Day 6): 0/2
- survivabilities (LPC 20 mpk, Day 6): 20%
- Mortalities (LPC 20 mpk, Day 7): 2/2
- survivabilities (LPC 20 mpk, Day 7): 0%
- Mortalities (LPC 20 mpk, Total): 10/10
- survivabilities (LPC 20 mpk, Total): 0%
- survival time (all the five doses of LPC in CPA-CLP mice): significantly increased
